The structures appear in SMILES notation.

The record followed here is ChEMBL document CHEMBL2203142, “Biomimetic in vitro oxidation of lapachol: a model to predict and analyse the in vivo phase I metabolism of bioactive compounds” (Eur J Med Chem, 2012).

Holding throughout (set-up): dose 25 mg/kg
For series [1], the system named is Plasma. The series is described as follows: Metabolic stability in Wistar rat plasma assessed as dehydro-alpha-lapachone level at 25 mg/kg after 1.5 hrs. Format: ADME, organism-based. The conditions noted are these: in vivo.
Series [2] concerns Plasma. The series is described as follows: Metabolic stability in Wistar rat plasma assessed as alpha-lapachone level at 25 mg/kg after 3 hrs. Format: ADME, organism-based. To be noted: in vivo.
For a further series, the system named is Rattus norvegicus. The series can be described thus: Toxicity in Wistar rat at 25 mg/kg. The series is classed as organism-based. To be noted: in vivo.
Series [3] can be described thus: Plasma concentration in Wistar rat at 25 mg/kg after 1.5 hrs. The series is classed as ADME, organism-based.
The subject of series [4] is Plasma. The series can be described thus: Metabolic stability in Wistar rat plasma assessed as alpha-lapachone level at 25 mg/kg after 12 hrs. The series is classed as ADME, organism-based. The conditions noted are these: in vivo.
Series [5] in a line: Plasma concentration in Wistar rat at 25 mg/kg after 12 hrs. Format: ADME, organism-based.
The subject of series [6] is Plasma. The series can be described thus: Metabolic stability in Wistar rat plasma assessed as alpha-lapachone level at 25 mg/kg after 1.5 hrs. Format: ADME, organism-based. To be noted: in vivo.

With `CC(C)=CCC1=C(O)C(=O)c2ccccc2C1=O` [LAPACHOL], the Drug metabolism with Plasma [1] came out at 0.6 µg/mL; with Plasma [2] it was 6 µg/mL; with Plasma [4], 0.7 µg/mL; in the series with Plasma [6], 1.4 µg/mL. The Activity entry in the series on Rattus norvegicus was “Non-toxic”. Also, in series [3], the concentration at 1.5 h stood at 37000 ng/mL. In series [5], this compound yielded a concentration at 12 h of 2000 ng/mL.
